Experimental data reported in US20120270744A1, “METHODS TO DETERMINE IF A SUBJECT WILL RESPOND TO A BCR-ABL INHIBITOR” (Oregon Health & Science University, priority 2007, published 2012).
Where two headings read alike, the source gives them in different places.

Experiments:
[1] = tested on: newly diagnosed chronic phase CML patients; test: Cytogenetic response of validation set patients treated with imatinib; assay type: in vivo, human; conditions: within 12 months, 23 newly diagnosed chronic phase patients
[2] = tested on: Lin−/CD34+/CD38+ and Lin−/CD34+/CD38− CML cells; test: Culture of sorted primitive CML cells with imatinib: growth and viability; assay type: cell-based, human; conditions: 5 μM imatinib, physiological concentrations of cytokines
Protocol: FIGS. 9A-9C are a set of graphs dot plots and digital images of Western blots showing viable cells and phosphotyrosine content following treatment with a BCR-ABL inhibitor. […] (FIG. 9B) After 2 hours, immunoblot analysis of cellular extracts for Crkl phosphorylation was preformed. (FIG. 9C) Aliquots from the same cultures were analyzed by FACS analysis for total cellular phosphotyrosine content. Results were identical after 96 hours of culture.
A combination of lineage-depletion columns and high speed sorting was used to select highly pure populations of Lin−/CD34+/CD38+(enriched for progenitor cells) and Lin−/CD34+/[…] (enriched for stem cells). […] It was concludes that survival of primitive CML cells may not require BCR-ABL kinase activity, implicating BCR-ABL-independent extrinsic or intrinsic mechanisms in the maintenance of viability.

CML CD34+ cells = test: Centrifugal adhesion assay to fibronectin with fluorescently labeled cells; assay type: cell-based, human
Description: (FIG. 10A) Adhesion under the carious conditions. (FIG. 10B) Fold expansion of viable cells. (FIG. 10C) Recovery of CFU-GM.
To reliably quantify adherence we modified the McClay (1981 PNAS 78:4975-9) centrifugal adhesion assay, using fluorescently labeled cells.

[3] = tested on: patients with CML in chronic phase; conditions: cited from earlier work; for risk of progression to accelerated phase or blast crisis: at 5 years

Compound: Cc1ccc(NC(=O)c2ccc(CN3CCN(C)CC3)cc2)cc1Nc1nccc(-c2cccnc2)n1 [imatinib]
- patients who achieved CCyR [1]: 74%
- viability [2]: viability was maintained
- growth (total number of viable cells over time) ([2]; preliminary experiments N=4): reduced to approximately the level of normal cells
- spontaneous adhesion to fibronectin (CML CD34+ cells; imatinib 5 micoM, 96 hours culture): further reduced
- adhesion to fibronectin (CML CD34+ cells; imatinib in presence of beta1 integrin activating antibody B44): again reduced
- projected overall survival ([3]; 60 months of follow-up): 89%
- patients who progressed to accelerated phase or blast crisis ([3]; among those who lost response): 7%
- risk of progression to accelerated phase or blast crisis ([3]; patients in complete cytogenetic response after 12 months of therapy): 3%
- risk of progression to accelerated phase or blast crisis ([3]; patients with primary cytogenetic resistance): 19%
- patients with primary cytogenetic resistance (failed to attain a major cytogenetic response) ([3]; at 12 months): approximately 14%
- patients who lost their response ([3]; human, in vivo): approximately 16%
- cumulative rate of complete cytogenetic response (CCyR, 0% Ph+ metaphases) ([3]; newly diagnosed CML in chronic phase, imatinib as initial therapy, 60 months of follow-up): 87%
